{"source": "patent US20230405028A1", "about": "(priority 2020, published 2023)", "key": {"[1]": {"system": "IL-6", "test": "IL-6 in HSIEC cells treated with TNF-α/IFN-γ", "format": "cell-based, human", "conditions": "single agent, escalating doses", "procedure": "(§1) Cell Culture: Human primary small intestinal epithelial cells (HSIEC), purchased from Cell Biologics were cultured in Epithelial Cell Medium/w Kit. HSIEC cells were incubated at 37° C. in a humidified atmosphere of 5% CO2. HSIEC cells were treated with mycoplasma removal reagent BM-Cyclin (Roche) to ensure mycoplasma negative before treatment.\nInduction of Inflammation in HSIECs and Treatment with Molecules of Interest: HSIEC cells grown to 80% confluence were treated with 10 ng/ml TNF-α/IFN-γ (Sigma) (Yang et al., 2015), for the time points indicated in FIG. 9, to assess the best time point for determination of anti-inflammatory potential of the molecules and formulations of interest. To do so, COX-2, an enzyme which mediates the bioconversion of arachidonic acid to inflammatory prostaglandins (PGs), was measured via densitometry. GAPDH was used as a reference housekeeping marker for relative densitometry measures. […] The anti-inflammatory potential of the molecules and formulations of interest were evaluated at 48 hours post-TNF-α/IFN-γ treatment in the HSIEC assays described below due to reduced variability and ability to assess differences between treatments. Ethanol or DMSO was used, as indicated in the figures, as a vehicle for dilution and as a negative control showing the amount of the inflammatory marker present when inflammation was not induced. […]"}, "[2]": {"system": "Human primary small intestinal epithelial cells (HSIEC)"}, "[3]": {"system": "COX-2", "test": "COX-2 in HSIEC cells treated with TNF-α/IFN-γ (western blot, densitometry)", "format": "cell-based, human", "conditions": "single agent, escalating doses", "procedure": "as §1\nTo do so, COX-2, an enzyme which mediates the bioconversion of arachidonic acid to inflammatory prostaglandins (PGs), was measured via densitometry. GAPDH was used as a reference housekeeping marker for relative densitometry measures. […] Ethanol or DMSO was used, as indicated in the figures, as a vehicle for dilution and as a negative control showing the amount of the inflammatory marker present when inflammation was not induced.\nIncreasing doses of each molecule of interest, or each combination of molecules of interest, were then distributed to the HSIEC cells treated to induce inflammatory response. Inflammatory markers COX-2 and/or IL-6 were assessed at specific timepoints after induction of inflammation for protein content marker measured via western blot. GAPDH was used as a reference housekeeping marker for relative densitometry measures of protein content."}, "[4]": {"system": "IL-8", "test": "IL-8 in HSIEC cells treated with TNF-α/IFN-γ", "format": "cell-based, human", "conditions": "single agent, escalating doses"}}, "note": "Like-named read-outs stand apart in the source and are kept apart here."}
{"smiles": "Cc1ccc(C(C)C)cc1O", "note": "[carvacrol]", "values": [{"measurement": "doses resulting in reduction of IL-6", "setting": "[1]", "value": 10, "unit": "µM"}, {"measurement": "effect on cell growth / cellular metabolic activity (MTT, words)", "setting": "[2]", "value": "could only be studied at very low dose"}, {"measurement": "Cellular Metabolic Activity", "setting": "[2]; 5 μM, 24 h", "value": 0.072}, {"measurement": "Cellular Metabolic Activity", "setting": "[2]; 5 μM, 48 h", "value": 0.175}, {"measurement": "Cellular Metabolic Activity", "setting": "[2]; 5 μM, 72 h", "value": 0.261}, {"measurement": "Cellular Metabolic Activity", "setting": "[2]; 5 μM, 96 h", "value": 0.501}, {"measurement": "Cellular Metabolic Activity", "setting": "[2]; 5 μM, time 0", "value": 0.022}, {"measurement": "Cellular Metabolic Activity", "setting": "[2]; 10 μM, 24 h", "value": 0.070}, {"measurement": "Cellular Metabolic Activity", "setting": "[2]; 10 μM, 48 h", "value": 0.164}, {"measurement": "Cellular Metabolic Activity", "setting": "[2]; 10 μM, 72 h", "value": 0.267}, {"measurement": "Cellular Metabolic Activity", "setting": "[2]; 10 μM, 96 h", "value": 0.487}, {"measurement": "Cellular Metabolic Activity", "setting": "[2]; 10 μM, time 0", "value": 0.021}, {"measurement": "Cellular Metabolic Activity", "setting": "[2]; 20 μM, 24 h", "value": 0.071}, {"measurement": "Cellular Metabolic Activity", "setting": "[2]; 20 μM, 48 h", "value": 0.171}, {"measurement": "Cellular Metabolic Activity", "setting": "[2]; 20 μM, 72 h", "value": 0.266}, {"measurement": "Cellular Metabolic Activity", "setting": "[2]; 20 μM, 96 h", "value": 0.461}, {"measurement": "Cellular Metabolic Activity", "setting": "[2]; 20 μM, time 0", "value": 0.022}, {"measurement": "Cellular Metabolic Activity", "setting": "[2]; 40 μM, 24 h", "value": 0.070}, {"measurement": "Cellular Metabolic Activity", "setting": "[2]; 40 μM, 48 h", "value": 0.159}, {"measurement": "Cellular Metabolic Activity", "setting": "[2]; 40 μM, 72 h", "value": 0.272}, {"measurement": "Cellular Metabolic Activity", "setting": "[2]; 40 μM, 96 h", "value": 0.544}, {"measurement": "Cellular Metabolic Activity", "setting": "[2]; 40 μM, time 0", "value": 0.022}, {"measurement": "Cellular Metabolic Activity", "setting": "[2]; 80 μM, 24 h", "value": 0.076}, {"measurement": "Cellular Metabolic Activity", "setting": "[2]; 80 μM, 48 h", "value": 0.120}, {"measurement": "Cellular Metabolic Activity", "setting": "[2]; 80 μM, 72 h", "value": 0.221}, {"measurement": "Cellular Metabolic Activity", "setting": "[2]; 80 μM, 96 h", "value": 0.423}, {"measurement": "Cellular Metabolic Activity", "setting": "[2]; 80 μM, time 0", "value": 0.025}, {"measurement": "Cellular Metabolic Activity", "setting": "[2]; 100 μM, 24 h", "value": 0.069}, {"measurement": "Cellular Metabolic Activity", "setting": "[2]; 100 μM, 48 h", "value": 0.106}, {"measurement": "Cellular Metabolic Activity", "setting": "[2]; 100 μM, 72 h", "value": 0.259}, {"measurement": "Cellular Metabolic Activity", "setting": "[2]; 100 μM, 96 h", "value": 0.397}, {"measurement": "Cellular Metabolic Activity", "setting": "[2]; 100 μM, time 0", "value": 0.026}, {"measurement": "Cellular Metabolic Activity", "setting": "[2]; 200 μM, 24 h", "value": 0.061}, {"measurement": "Cellular Metabolic Activity", "setting": "[2]; 200 μM, 48 h", "value": 0.088}, {"measurement": "Cellular Metabolic Activity", "setting": "[2]; 200 μM, 72 h", "value": 0.179}, {"measurement": "Cellular Metabolic Activity", "setting": "[2]; 200 μM, 96 h", "value": 0.238}, {"measurement": "Cellular Metabolic Activity", "setting": "[2]; 200 μM, time 0", "value": 0.027}, {"measurement": "Cellular Metabolic Activity", "setting": "[2]; 400 μM, 24 h", "value": 0.062}, {"measurement": "Cellular Metabolic Activity", "setting": "[2]; 400 μM, 48 h", "value": 0.079}, {"measurement": "Cellular Metabolic Activity", "setting": "[2]; 400 μM, 72 h", "value": 0.139}, {"measurement": "Cellular Metabolic Activity", "setting": "[2]; 400 μM, 96 h", "value": 0.137}, {"measurement": "Cellular Metabolic Activity", "setting": "[2]; 400 μM, time 0", "value": 0.027}, {"measurement": "doses reducing COX-2 to the greatest extent", "setting": "[3]", "value": 5, "unit": "µM"}, {"measurement": "doses resulting in reduction of IL-8", "setting": "[4]", "value": "all doses"}]}
